One test deals with T1, Human PD-L1/PD-1 (Homo sapiens, UniProt Q9NZQ7).
T1 construct: made in house; host or cells: HEK293T
The test can be described thus: HTRF PD-1-Ig/PD-L1-His binding assay (human PD-L1). Conditions: cluster symbol; read-out: HTRF IC50 cluster. The method, boiled down:
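Soluble PD-1-Ig binding to PD-L1-His measured by HTRF in dPBS with 0.1% BSA and 0.05% Tween-20. Detection used europium cryptate anti-Ig antibody (1 nM final) and APC anti-His antibody (20 nM final) added on top of the binding reaction.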

The target in test [1] is T2, LK35.2-hPD-L1 cells / PE-labeled PD-1-Ig (Homo sapiens, UniProt Q9NZQ7).
T2 construct: expressed in transfected cells; host or cells: LK35.2 mouse B cell line
T2 sequence (Q9NZQ7 19-290): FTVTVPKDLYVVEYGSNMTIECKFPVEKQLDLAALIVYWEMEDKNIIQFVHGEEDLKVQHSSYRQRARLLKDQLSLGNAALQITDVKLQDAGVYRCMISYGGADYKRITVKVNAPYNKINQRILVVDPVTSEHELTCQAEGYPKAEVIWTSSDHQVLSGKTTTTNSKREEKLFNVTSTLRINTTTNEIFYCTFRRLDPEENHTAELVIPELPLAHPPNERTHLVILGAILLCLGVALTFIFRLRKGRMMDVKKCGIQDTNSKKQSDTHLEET
The test can be described thus: LK35.2-hPD-L1 cell binding high-content screening assay. The test is classed as cell-based. Conditions: cluster symbol, read-out: CBA IC50 cluster. In a few lines:
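Readout: high-content imaging of PE-PD-1-Ig bound to LK35.2-hPD-L1 cells. Cells plated overnight (RPMI/10% FCS); compound + 1 nM PE-PD-1-Ig, 1 h, 37 °C; 3× dPBS wash before imaging.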

Setting [2] is: cell line of CBA not given (LK35.2-hPD-L1 or 293T-hPD-L1).
Setting [3] is: cell binding assay, cell line not given.

The source of these data is patent publication US9850283B2, “Macrocyclic inhibitors of the PD-1/PD-L1 and CD80(B7-1)/PD-L1 protein/protein interactions” (BRISTOL-MYERS SQUIBB COMPANY, priority 2013, dated 2017).

Each structure is given as a SMILES string. Read-outs that look alike come from different tables or passages of the source. Positions of bridges follow the written chain, without caps; N, C: chain ends. Non-standard residues stand in square brackets, D forms with d. Residues, ends and D or L forms follow the SMILES beside them. Ala(indol-4-yl) = N[C@@H](Cc1cccc2[nH]ccc12)C(=O)O; Trp(7-aza) = N[C@@H](Cc1c[nH]c2ncccc12)C(=O)O; Phe(2-OMe) = COc1ccccc1C[C@H](N)C(=O)O; Bta = N[C@@H](Cc1csc2ccccc12)C(=O)O; Hyp = O=C(O)[C@@H]1C[C@@H](O)CN1; NMeF = CN[C@@H](Cc1ccccc1)C(=O)O; NMeNle = CCCC[C@H](NC)C(=O)O; NMeA = CN[C@@H](C)C(=O)O; Dab = NCC[C@H](N)C(=O)O; Dap = NC[C@H](N)C(=O)O; Sar = CNCC(=O)O

As usually defined, the IC50 is the concentration that inhibits the measured activity by half.

T1 sequence (Q9NZQ7 with tags, fused parts or gaps): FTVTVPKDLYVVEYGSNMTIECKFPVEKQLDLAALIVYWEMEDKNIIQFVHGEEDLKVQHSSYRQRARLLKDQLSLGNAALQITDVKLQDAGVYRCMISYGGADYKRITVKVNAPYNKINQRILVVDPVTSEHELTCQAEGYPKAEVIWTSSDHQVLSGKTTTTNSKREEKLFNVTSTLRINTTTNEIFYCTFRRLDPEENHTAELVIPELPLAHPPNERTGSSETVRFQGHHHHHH

Consider `CCCC[C@H]1C(=O)N(C)[C@@H](CCCC)C(=O)N[C@@H](CCCNC(=N)N)C(=O)N[C@H](C(=O)NCC(N)=O)CSCC(=O)N[C@@H](Cc2cccc3[nH]ccc23)C(=O)N(C)[C@@H](C)C(=O)N[C@@H](CC(N)=O)C(=O)N2CCC[C@H]2C(=O)N[C@@H](Cc2cnc[nH]2)C(=O)N[C@@H](CC(C)C)C(=O)N(C)CC(=O)N[C@@H](Cc2c[nH]c3ccccc23)C(=O)N[C@@H](CO)C(=O)N[C@@H](Cc2c[nH]c3ccccc23)C(=O)N1C` [Example 1094] ({CH2CO}-[Ala(indol-4-yl)][NMeA]NPHL[Sar]WSW[NMeNle][NMeNle]RCG-NH2; thioether N-14), for which the concentration for half-maximal inhibition (IC50) on Human PD-L1/PD-1 was in the range of 6.76 to 30.3 nM; in test [1] (setting [2]), 0.158 to 4.71 nM.
In the same order, the values of `CCCC[C@H]1C(=O)N(C)[C@@H](CCCC)C(=O)N[C@@H](CCCNC(=N)N)C(=O)N[C@H](C(=O)NCC(N)=O)CSCC(=O)N[C@@H](Cc2ccccc2)C(=O)N(C)[C@@H](C)C(=O)N[C@@H](CC(N)=O)C(=O)N2CCC[C@H]2C(=O)N[C@@H](Cc2cnc[nH]2)C(=O)N[C@@H](CC(C)C)C(=O)N(C)CC(=O)N[C@@H](Cc2c[nH]c3ccccc23)C(=O)N[C@H](C)C(=O)N[C@@H](Cc2c[nH]c3ccccc23)C(=O)N1C` [Example 1061] ({CH2CO}-F[NMeA]NPHL[Sar]W[dA]W[NMeNle][NMeNle]RCG-NH2; thioether N-14) are greater than 30.5 nM and greater than 74.3 nM.
`CCCC[C@H]1C(=O)N2CCC[C@@H]2C(=O)N[C@@H](CCC(=O)O)C(=O)N[C@@H](C(C)C)C(=O)N(C)[C@@H](Cc2ccccc2)C(=O)N[C@@H](CN)C(=O)N2CCC[C@@H]2C(=O)N[C@@H](Cc2c[nH]c3ccccc23)C(=O)N[C@@H](Cc2ccc(O)cc2)C(=O)N[C@@H](CC(C)C)C(=O)N[C@H](C(=O)NCC(N)=O)CSCC(=O)N[C@@H](Cc2ccccc2)C(=O)N(C)[C@@H](Cc2ccccc2)C(=O)N1C` [Example 3191] ({CH2CO}-F[NMeF][NMeNle][dP]EV[NMeF][Dap][dP]WYLCG-NH2; thioether N-13): the values for the IC50 (on Human PD-L1/PD-1; in test [1] (setting [2])) were 0.385 to 6.74 nM and 4.78 to 72.9 nM, respectively.
For the compound `CCCC[C@H]1C(=O)N(C)[C@@H](CCCC)C(=O)N[C@@H](CCCNC(=N)N)C(=O)N[C@H](C(=O)NCC(N)=O)CSCC(=O)N[C@@H](Cc2ccccc2)C(=O)N(C)[C@@H](C)C(=O)N[C@@H](CC(N)=O)C(=O)N2CCC[C@H]2C(=O)N[C@@H](Cc2cnc[nH]2)C(=O)N[C@@H](CCC(=O)O)C(=O)N(C)CC(=O)N[C@@H](Cc2c[nH]c3ccccc23)C(=O)N[C@@H](CO)C(=O)N[C@@H](Cc2c[nH]c3ccccc23)C(=O)N1C` [Example 1054] ({CH2CO}-F[NMeA]NPHE[Sar]WSW[NMeNle][NMeNle]RCG-NH2; thioether N-14), the values for the IC50 (on Human PD-L1/PD-1; in test [1] (setting [2])) were 0.385 to 6.74 nM and 4.78 to 72.9 nM, respectively.
With `CCCC[C@H]1C(=O)N(C)[C@@H](CCCC)C(=O)N[C@@H](CCCNC(=N)N)C(=O)N[C@H](C(=O)NCC(N)=O)CSCC(=O)N[C@@H](Cc2ccccc2OC)C(=O)N(C)[C@@H](C)C(=O)N[C@@H](CC(N)=O)C(=O)N2CCC[C@H]2C(=O)N[C@@H](Cc2cnc[nH]2)C(=O)N[C@@H](CC(C)C)C(=O)N2CCC[C@H]2C(=O)N[C@@H](Cc2c[nH]c3ccccc23)C(=O)N[C@@H](CO)C(=O)N[C@@H](Cc2c[nH]c3ccccc23)C(=O)N1C` [Example 7017] ({CH2CO}-[Phe(2-OMe)][NMeA]NPHLPWSW[NMeNle][NMeNle]RCG-NH2; thioether N-14), the figures for the IC50 (on Human PD-L1/PD-1; in test [1] (setting [3])) were 0.385 to 6.74 nM and 4.78 to 72.9 nM, respectively.
Taken in the same sequence, the figures for `CCCC[C@H]1C(=O)N(C)CC(=O)N[C@@H](CC(=O)O)C(=O)N[C@@H](C(C)C)C(=O)N(C)[C@@H](Cc2ccccc2)C(=O)N[C@@H](Cc2ccc(O)cc2)C(=O)N(C)[C@@H](CCC(=O)O)C(=O)N[C@@H](Cc2c[nH]c3ccccc23)C(=O)N[C@@H](Cc2ccc(O)cc2)C(=O)N[C@@H](CC(C)C)C(=O)N[C@H](C(=O)NCC(N)=O)CSCC(=O)N[C@@H](Cc2ccccc2)C(=O)N(C)[C@@H](Cc2ccccc2)C(=O)N1C` [Example 3512] (HELM PEPTIDE1{[O=C(C[*:3])[*:2]].F.[meF].[CCCC[C@@H](C(=O)[*:2])N(C)[*:1]].[Sar].D.V.[meF].Y.[meE].W.Y.L.C.G.[am]}$PEPTIDE1,PEPTIDE1,1:R3-14:R3$$$V2.0) were 0.385 to 6.74 nM and 4.78 to 72.9 nM.
Taken in the same sequence, the figures for `CCCC[C@H]1C(=O)N(C)[C@@H](CCCC)C(=O)N[C@@H](Cc2ccncc2)C(=O)N[C@H](C(=O)NCC(N)=O)CSCC(=O)N[C@@H](Cc2ccc(O)cc2)C(=O)N(C)[C@@H](C)C(=O)N[C@@H](CC(N)=O)C(=O)N2CCC[C@H]2C(=O)N[C@@H](Cc2cnc[nH]2)C(=O)N[C@@H](CC(C)C)C(=O)N2C[C@H](O)C[C@H]2C(=O)N[C@@H](Cc2c[nH]c3ccccc23)C(=O)N[C@@H](CO)C(=O)N[C@@H](Cc2c[nH]c3ccccc23)C(=O)N1C` [Example 7031] were 0.385 to 6.74 nM and 4.78 to 72.9 nM.
Taken in the same sequence, the figures for `CCCC[C@H]1C(=O)N(C)[C@@H](CCCC)C(=O)N[C@@H](CCCNC(=N)N)C(=O)N[C@H](C(=O)NCC(N)=O)CSCC(=O)N[C@@H](Cc2ccc(O)cc2)C(=O)N(C)[C@@H](C)C(=O)N[C@@H](CC(N)=O)C(=O)N2CCC[C@H]2C(=O)N[C@@H](Cc2cnc[nH]2)C(=O)N[C@@H](CCC(=O)O)C(=O)N2C[C@H](O)C[C@H]2C(=O)N[C@@H](Cc2csc3ccccc23)C(=O)N[C@@H](CCN)C(=O)N[C@@H](Cc2c[nH]c3ccccc23)C(=O)N1C` [Example 5052] ({CH2CO}-Y[NMeA]NPHE[Hyp][Bta][Dab]W[NMeNle][NMeNle]RCG-NH2; thioether N-14) were greater than 30.5 nM and greater than 74.3 nM.
For `CCCC[C@H]1C(=O)N(C)CC(=O)N[C@@H](CC(=O)O)C(=O)N[C@@H](C(C)C)C(=O)N(C)[C@@H](Cc2ccccc2)C(=O)N[C@@H](Cc2ccc(O)cc2)C(=O)N(C)CC(=O)N[C@@H](Cc2c[nH]c3ccccc23)C(=O)N[C@@H](Cc2ccccc2)C(=O)N[C@@H](CC(C)C)C(=O)N[C@H](C(=O)NCC(N)=O)CSCC(=O)N[C@@H](Cc2ccccc2)C(=O)N(C)[C@@H](Cc2ccccc2)C(=O)N1C` [Example 3540] (HELM PEPTIDE1{[O=C(C[*:3])[*:2]].F.[meF].[CCCC[C@@H](C(=O)[*:2])N(C)[*:1]].[Sar].D.V.[meF].Y.[Sar].W.F.L.C.G.[am]}$PEPTIDE1,PEPTIDE1,1:R3-14:R3$$$V2.0), the concentration for half-maximal inhibition (IC50) at Human PD-L1/PD-1 is greater than 30.5 nM; in test [1] (setting [3]), greater than 74.3 nM.
Consider `CCCC[C@H]1C(=O)N(C)CC(=O)N[C@@H](CC(=O)O)C(=O)N[C@@H](COC)C(=O)N(C)[C@@H](Cc2ccccc2)C(=O)N[C@@H](Cc2ccc(O)cc2)C(=O)N(C)CC(=O)N[C@@H](Cc2c[nH]c3ccccc23)C(=O)N[C@@H](Cc2ccc(O)cc2)C(=O)N[C@@H](CC(C)C)C(=O)N[C@H](C(=O)NCC(N)=O)CSCC(=O)N[C@@H](Cc2ccccc2)C(=O)N(C)[C@@H](Cc2ccccc2)C(=O)N1C` [Example 3155] ({CH2CO}-F[NMeF][NMeNle][Sar]DS(Me)[NMeF]Y[Sar]WYLCG-NH2; thioether N-13), for which the half-inhibitory concentration (IC50) on Human PD-L1/PD-1 is greater than 30.5 nM; in test [1] (setting [2]), greater than 74.3 nM.
In the same order, the values of `CCCC[C@H]1C(=O)N(C)[C@@H](CCCC)C(=O)N[C@@H](CCCN)C(=O)N[C@H](C(=O)NCC(N)=O)CSCC(=O)N[C@@H](Cc2ccc(O)cc2)C(=O)N2C[C@@H](N)C[C@H]2C(=O)N[C@@H](CC(N)=O)C(=O)N2CCC[C@H]2C(=O)N[C@@H](Cc2cnc[nH]2)C(=O)N[C@@H](CC(C)C)C(=O)N2C[C@H](O)C[C@H]2C(=O)N[C@@H](Cc2c[nH]c3ccccc23)C(=O)N[C@@H](CO)C(=O)N[C@@H](Cc2c[nH]c3ccccc23)C(=O)N1C` [Example 1188] are 6.76 to 30.3 nM and 4.78 to 72.9 nM.
With `CCCC[C@H]1C(=O)N(C)[C@@H](CCCC)C(=O)N[C@@H](CCCNC(=N)N)C(=O)N[C@H](C(=O)NCC(N)=O)CSCC(=O)N[C@@H](Cc2ccccc2)C(=O)N(C)[C@@H](C)C(=O)N[C@@H](CC(N)=O)C(=O)N2CCC[C@H]2C(=O)N[C@@H](Cc2cnc[nH]2)C(=O)N[C@@H](CC(C)C)C(=O)N(C)CC(=O)N[C@@H](Cc2c[nH]c3ccccc23)C(=O)N[C@@H](CO)C(=O)N[C@@H](Cc2c[nH]c3ncccc23)C(=O)N1C` [Example 1038] ({CH2CO}-F[NMeA]NPHL[Sar]WS[Trp(7-aza)][NMeNle][NMeNle]RCG-NH2; thioether N-14), the IC50 on Human PD-L1/PD-1 is greater than 30.5 nM; in test [1] (setting [2]) it was greater than 74.3 nM.
For `CCCC[C@H]1C(=O)N(C)[C@@H](CCCC)C(=O)N[C@@H](CCCNC(=N)N)C(=O)N[C@H](C(=O)NCC(N)=O)CSCC(=O)N[C@@H](Cc2cccc3[nH]ccc23)C(=O)N(C)[C@@H](C)C(=O)N[C@@H](CC(N)=O)C(=O)N2CCC[C@H]2C(=O)N[C@@H](Cc2cnc[nH]2)C(=O)N[C@@H](CC(C)C)C(=O)N2CCC[C@H]2C(=O)N[C@@H](Cc2c[nH]c3ccccc23)C(=O)N[C@@H](CO)C(=O)N[C@@H](Cc2csc3ccccc23)C(=O)N1C` [Example 1120] ({CH2CO}-[Ala(indol-4-yl)][NMeA]NPHLPWS[Bta][NMeNle][NMeNle]RCG-NH2; thioether N-14), the IC50 fell in the range of 6.76 to 30.3 nM at Human PD-L1/PD-1 and 0.158 to 4.71 nM in test [1] (setting [2]).
Taken in the same sequence, the figures for `CCCC[C@H]1C(=O)N(C)[C@@H](CCCC)C(=O)N[C@@H](CCCNC(=N)N)C(=O)N[C@H](C(=O)NCC(N)=O)CSCC(=O)N[C@@H](Cc2ccccc2)C(=O)N(C)[C@@H](C)C(=O)N[C@@H](CC(=O)O)C(=O)N2CCC[C@H]2C(=O)N[C@@H](Cc2cnc[nH]2)C(=O)N[C@@H](CC(C)C)C(=O)N(C)CC(=O)N[C@@H](Cc2c[nH]c3ccccc23)C(=O)N[C@@H](CO)C(=O)N[C@@H](Cc2c[nH]c3ccccc23)C(=O)N1C` [Example 1092] ({CH2CO}-F[NMeA]DPHL[Sar]WSW[NMeNle][NMeNle]RCG-NH2; thioether N-14) were 6.76 to 30.3 nM and 4.78 to 72.9 nM.
